This note sets out measurements from US20260035364A1, “BICYCLIC TETRAHYDROTHIAZEPINE DERIVATIVES” (Hoffmann-La Roche Inc., priority 2022, published 2026).

One experiment deals with DGKzeta (Homo sapiens, UniProt Q13574). The experiment can be described thus: In vitro DGK inhibition assay (ADP-Glo, liposomes), DGKzeta. The format is biochemical. Also noted: hDGKzeta(1-928)-N-His; His (N); made in house; host or cells: Sf21 insect cells (baculovirus). The note with it: 2 nM DGK ζ, 50 μM ATP, 125 uM DLG in liposomes, 1 hour reaction. The method, then: DGK α and ζ kinases use ATP to phosphorylate the substrate 1,2-dilauroyl-sn-glycerol (DLG, incorporated in the liposomes). ATP is converted to ADP as a result of this enzymatic reaction. After the kinase reaction, an ATP-depletion reagent is added to terminate the kinase reaction and deplete any remaining ATP, leaving only ADP. Second, a detection reagent is added to simultaneously convert ADP to ATP and allow the newly synthesized ATP to be converted to light using a coupled luciferase/luciferin reaction.
Sequence of DGKzeta (Q13574 whole entry): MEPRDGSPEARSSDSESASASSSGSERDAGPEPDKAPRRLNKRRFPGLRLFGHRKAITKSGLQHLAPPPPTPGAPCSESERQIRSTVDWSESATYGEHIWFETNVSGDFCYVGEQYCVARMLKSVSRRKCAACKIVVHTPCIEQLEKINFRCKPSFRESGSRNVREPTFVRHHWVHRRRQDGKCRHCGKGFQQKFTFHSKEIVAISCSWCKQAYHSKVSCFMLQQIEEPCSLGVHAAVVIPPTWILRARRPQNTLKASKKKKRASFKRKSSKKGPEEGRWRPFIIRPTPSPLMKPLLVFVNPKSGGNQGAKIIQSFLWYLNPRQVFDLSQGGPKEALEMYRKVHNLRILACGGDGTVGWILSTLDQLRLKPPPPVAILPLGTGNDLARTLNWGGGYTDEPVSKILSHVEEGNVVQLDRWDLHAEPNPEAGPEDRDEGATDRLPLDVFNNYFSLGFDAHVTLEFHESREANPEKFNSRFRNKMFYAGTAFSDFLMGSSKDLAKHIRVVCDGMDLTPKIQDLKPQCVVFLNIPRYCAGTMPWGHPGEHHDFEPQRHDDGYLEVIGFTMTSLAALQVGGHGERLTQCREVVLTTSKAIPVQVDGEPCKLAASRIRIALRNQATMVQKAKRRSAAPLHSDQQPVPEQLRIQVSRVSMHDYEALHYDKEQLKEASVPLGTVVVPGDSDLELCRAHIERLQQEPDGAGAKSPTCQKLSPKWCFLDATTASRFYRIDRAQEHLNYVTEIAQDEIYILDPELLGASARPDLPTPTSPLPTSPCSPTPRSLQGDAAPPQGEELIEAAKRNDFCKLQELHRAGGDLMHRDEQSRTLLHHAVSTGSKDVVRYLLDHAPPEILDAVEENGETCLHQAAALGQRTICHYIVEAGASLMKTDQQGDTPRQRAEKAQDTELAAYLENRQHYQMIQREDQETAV
Purification of both enzymes was performed as previously described by Takahashi et al., PeerJ, 2018 (Takahashi, D.; Sakane, F. Expression and purification of human diacylglycerol kinase alpha from baculovirus-infected insect cells for structural studies. PeerJ 2018, 6, No. e5449).
A concentrated liposome solution was prepared in assay buffer without DTT and BSA: 2 mM of DLG in 21 mM of total liposome (2 mM DLG/8 mM PS/11 mM PC). The reaction mixtures contain the assay buffer with a final DLG concentration of 125 uM ATP concentrations of 25 μM (for DGKA assay) or 50 μM (for DGKZ assay). The reactions were started by addition of DGK a and (kinases at 4 nM and 2 nM final concentrations, respectively. After 1 hour reaction, the amount of ADP formed was detected with the ADP-Glo kinase assay (Promega) according to the manufacturer instructions. Compounds were added in 11-points dose response, starting at […], 1:3 dilutions, with a final DMSO concentration of 2%. The multidrop combi was used as a liquid handler and luminescence was read with 0.5 s by the envision reader (PE).
For orientation: ADP-Glo turns the ADP formed in a reaction into a luminescent signal.

In the next experiment the test system is primary human T-cells. Nature of the experiment: T-cell proliferation assay (CellTiter-Glo). The format is cell-based. As to conditions: Homo sapiens, T-cell, 120 h, CD3 condition; for Emax: 5 days, 20 μM reference compound A1 = 100%, read-out: Emax proliferation (% activation); for EC50: proliferation after 5 days, CellTiter-Glo, read-out: Tcell Proliferation CD3 EC50. The method, then:
Expanded primary human T-cells are thawed and cultured in RPMI 1640 (Gibco, #61870-010)+5% human serum (HS, Sigma, #H3667)+1 mM Sodium Pyruvate (Gibco, #11360-039)+50 μM 2-mercaptoethanol (Gibco, #31350-010) and 1× Pen-Strep (Life Technologies, #15140122) medium at density of 2 Mio/ml for 3 hours in 5% CO2, 37° C. and 95% humidity. For coating of plates, PBS++ only or PBS++ with CD3 antibody (concentration depending on donor and determined by CD3 titrations) is added 100 μl/well to Poly-D Lysine coated 96-well plates. Plates are sealed and incubated at room temperature for 3 hours on a table-top rocking platform. After incubation, plates are washed once with PBS−− and filled with 40 μl/well culture medium only. Compounds are then added (see next section) to medium only plates. After 3 hours of culturing the T-cells, cells are filtered through a cell strainer (Miltenyi Biotech, #130-041-407), counted again and concentration is adjusted to 1.25 Mio/ml.
Cells are then seeded 80 μl/well to the 40 µl/well including dispensed compounds according to plate layout. By adding cells, compounds are further diluted 1:3, and resulting in 100k cells/120 µl/well. After 48 hours 40 μl of supernatant is collected carefully from the top while not disturbing the cells. Cells are assessed for proliferation 5 days later by measuring […] using CellTiterGlo (Promega).
Compounds were added in a 5 or 6 pt dose response with the Tecan D300e Digital Dispenser, all conditions 3 times more concentrated than the end-concentration, since cells are added afterwards (80p1 cells to 40p1 prepared medium with treatment). The DR was starting at 20 μM or 10 μM final top concentration and a dilution factor of 3.333. The positive control was the reference compound A1 that was added in a dose response as well, additionally to 3 wells of only 20 μM representing the positive stimulator control. All wells were normalized with DMSO to a final concentration of 0.6% (0.2% end-concentration).
After 5 days, for detection of ATP which is directly proportional to the number of cells present per well, the CellTiter-Glo® 2.0 Reagent is used. After visual control for toxicity or precipitations of the tested compounds, the plates are equilibrated to room temperature for 45 minutes. CellTiter-Glo® 2.0 Reagent is equilibrated to room temperature as well. After equilibration, an equal amount of CellTiter-Glo reagent is added to the cells (80 µl/well) with an electronic multichannel pipette. Plates are placed on a rocking platform for 15 minutes at room temperature. After incubation, the bottom of the plates is sealed with backing tape. Luminescence is measured with PHERAstar FSX (interval time 0.5 sec, gain 3000, focal height 15 mm) and exported as CSV file for analysis in Genedata screener.
Calculations and Data Reporting CD3 and PBS plates were analysed separately in Genedata Screener using Roche Normalization PCT_POS_CTRL with DMSO set as Neutral Control and 20 μM of the reference compound A1 set as Stimulator Control/100%.
For CD3 conditions EC50 and Emax of the fitted sigmoidal curve were reported. If no curve could be fitted, the EC50 was reported as blank field and the Emax was based on individual data points. […] Compounds which activate unstimulated cells (see IL2 measurements) or compounds which negatively affected viability were flagged.
(In ATP-based viability assays light output follows the ATP content of the culture.)

Molecules are shown by their SMILES.

Usually IC50 stands for the concentration needed to halve the response being measured. Read a low IC50 as higher potency. Regarding `CC(C)(c1nnc(-c2ccc3c(c2)N(Cc2ccc(OCc4ccccc4)cc2)C(=O)[C@@H](N)CS3(=O)=O)o1)S(C)(=O)=O` [Example 11, (3R)-3-amino-5-[(4-benzyloxyphenyl)methyl]-7-[5-(1-methyl-1-methylsulfonyl-ethyl)-1,3,4-oxadiazol-2-yl]-1,1-dioxo-2,3-dihydro-1λ6,5-benzothiazepin-4-one], the midpoint of inhibition against DGKzeta, the IC50, lay at 1060 nM. For the same compound, in the experiment on primary human T-cells, the Emax amounted to 145% and the EC50 is 495 nM.
Compound `COc1ccc(-c2ccc(CN3C(=O)[C@@H](N)CS(=O)(=O)c4cc(F)c(-c5nnc(C(C)(C)S(C)(=O)=O)o5)cc43)cc2)cc1` [Example 29, (3R)-3-amino-8-fluoro-5-[[4-(4-methoxyphenyl)phenyl]methyl]-7-[5-(1-methyl-1-methylsulfonyl-ethyl)-1,3,4-oxadiazol-2-yl]-1,1-dioxo-2,3-dihydro-1λ6,5-benzothiazepin-4-one] gave an IC50 against DGKzeta of 251 nM. Moreover, in the experiment with primary human T-cells, the Emax was determined as 108% and the EC50 came to 55 nM.
Compound `CC(C)(c1nc(-c2cc3c(cc2F)S(=O)(=O)C[C@H](N)C(=O)N3Cc2ccc(-c3noc(C(F)(F)F)n3)cc2)no1)S(C)(=O)=O` [Example 46, (3R)-3-amino-8-fluoro-7-[5-(1-methyl-1-methylsulfonyl-ethyl)-1,2,4-oxadiazol-3-yl]-1,1-dioxo-5-[[4-[5-(trifluoromethyl)-1,2,4-oxadiazol-3-yl]phenyl]methyl]-2,3-dihydro-1λ6,5-benzothiazepin-4-one] came in with an IC50 against DGKzeta of 256 nM. In the experiment on primary human T-cells, the Emax is 185% and the EC50 is 135 nM.
For `CC(C)(c1nnc(-c2ccc3c(c2)N(Cc2ccc(OC(F)(F)F)cc2)C(=O)[C@@H](N)CS3(=O)=O)o1)S(C)(=O)=O` [Example 64, (3R)-3-amino-7-[5-(1-methyl-1-methylsulfonyl-ethyl)-1,3,4-oxadiazol-2-yl]-1,1-dioxo-5-[[4-(trifluoromethoxy)phenyl]methyl]-2,3-dihydro-126,5-benzothiazepin-4-one] the same measures were 1920 nM, 98% and 6170 nM.
As for `CC(C)(c1nnc(-c2ccc3c(c2)N(Cc2ccc(Oc4cccc(C(F)(F)F)c4)cc2)C(=O)[C@@H](N)CS3(=O)=O)o1)S(C)(=O)=O` [Example 38], the IC50 against DGKzeta amounted to 1280 nM. For the same compound, in the experiment on primary human T-cells, the Emax stood at 130% and the EC50 amounted to 623 nM.
Compound `CC(C)(c1nnc(-c2ccc3c(c2)N(Cc2ccc(Oc4cc(F)cc(C(F)(F)F)c4)cc2)C(=O)[C@@H](N)CS3(=O)=O)o1)S(C)(=O)=O` [Example 39] returned an IC50 against DGKzeta of 2630 nM. For the same compound, in the experiment on primary human T-cells, the Emax stood at 108% and the EC50 was 1330 nM.
With `CC(C)(c1nnc(-c2cc3c(cc2F)S(=O)(=O)C[C@H](N)C(=O)N3Cc2ccc(OCC(F)(F)F)cc2)o1)S(C)(=O)=O` [Example 24, (3R)-3-amino-8-fluoro-7-[5-(1-methyl-1-methylsulfonyl-ethyl)-1,3,4-oxadiazol-2-yl]-1,1-dioxo-5-[[4-(2,2,2-trifluoroethoxy)phenyl]methyl]-2,3-dihydro-1λ6,5-benzothiazepin-4-one], half-maximal inhibition at DGKzeta (IC50) was put at 503 nM. Moreover, in the experiment on primary human T-cells, the Emax amounted to 104% and the EC50 worked out at 475 nM.
`CC(C)(c1nnc(-c2ccc3c(c2)N(Cc2ccc(OCc4ccccc4F)cc2)C(=O)[C@@H](N)CS3(=O)=O)o1)S(C)(=O)=O` [Example 14, (3R)-3-amino-5-[[4-[(2-fluorophenyl)methoxy]phenyl]methyl]-7-[5-(1-methyl-1-methylsulfonyl-ethyl)-1,3,4-oxadiazol-2-yl]-1,1-dioxo-2,3-dihydro-1λ6,5-benzothiazepin-4-one] gave an IC50 against DGKzeta of 1110 nM. Moreover, in the experiment with primary human T-cells, the Emax is 113% and the EC50 came out at 1220 nM.
The like results for `CC(C)(c1nnc(-c2cc3c(cc2F)S(=O)(=O)C[C@H](N)C(=O)N3Cc2ccc(Cl)cc2)o1)S(C)(=O)=O` [Example 2, (3R)-3-amino-5-[(4-chlorophenyl)methyl]-8-fluoro-7-[5-(1-methyl-1-methylsulfonyl-ethyl)-1,3,4-oxadiazol-2-yl]-1,1-dioxo-2,3-dihydro-1λ6,5-benzothiazepin-4-one] were, in that order, 1380 nM, 123% and 399 nM.
As to `CC(C)(c1nnc(-c2ccc3c(c2)N(Cc2ccc(-c4ccc(OC(F)(F)F)cn4)cc2)C(=O)[C@@H](N)CS3(=O)=O)o1)S(C)(=O)=O` [Example 69, (3R)-3-amino-1,1-diketo-7-[5-(1-mesyl-1-methyl-ethyl)-1,3,4-oxadiazol-2-yl]-5-[4-[5-(trifluoromethoxy)-2-pyridyl]benzyl]-2,3-dihydro-1λ6,5-benzothiazepin-4-one], the IC50 on DGKzeta was 826 nM. In addition, in the experiment on primary human T-cells, the Emax worked out at 91% and the EC50 is 31 nM.
For `CC(C)(c1nnc(-c2ccc3c(c2)N(Cc2ccc(OCCC(F)(F)F)cc2)C(=O)[C@@H](N)CS3(=O)=O)o1)S(C)(=O)=O` [Example 23, (3R)-3-amino-7-[5-(1-methyl-1-methylsulfonyl-ethyl)-1,3,4-oxadiazol-2-yl]-1,1-dioxo-5-[[4-(3,3,3-trifluoropropoxy)phenyl]methyl]-2,3-dihydro-1λ6,5-benzothiazepin-4-one] the same measures were 1260 nM, 79% and 4540 nM.
Compound `CC(C)(c1nnc(-c2ccc3c(c2)N(Cc2ccc(OCc4ccc(F)cc4)cc2)C(=O)[C@@H](N)CS3(=O)=O)o1)S(C)(=O)=O` [Example 12, (3R)-3-amino-5-[[4-[(4-fluorophenyl)methoxy]phenyl]methyl]-7-[5-(1-methyl-1-methylsulfonyl-ethyl)-1,3,4-oxadiazol-2-yl]-1,1-dioxo-2,3-dihydro-1λ6,5-benzothiazepin-4-one] showed an IC50 on DGKzeta of 802 nM. Moreover, in the experiment on primary human T-cells, the Emax came to 151% and the EC50 turned out to be 590 nM.
Take `CC(C)(c1nc(-c2cc3c(cc2F)S(=O)(=O)C[C@H](N)C(=O)N3Cc2ccc(OC(F)(F)F)cc2)no1)S(C)(=O)=O` [Example 44, (3R)-3-amino-8-fluoro-7-[5-(1-methyl-1-methylsulfonyl-ethyl)-1,2,4-oxadiazol-3-yl]-1,1-dioxo-5-[[4-(trifluoromethoxy)phenyl]methyl]-2,3-dihydro-1λ6,5-benzothiazepin-4-one]: the IC50 against DGKzeta came out at 317 nM. Also, in the experiment with primary human T-cells, the Emax was 251% and the EC50 turned out to be 208 nM.
